From patent US20250059208A1, “KRAS MODULATING COMPOUNDS” (priority 2023, published 2025) come the findings set out here.

Where two headings read alike, the source gives them in different places.

In experiment [1] the target is GDP-loaded wild-type KRAS (WT) (Homo sapiens, UniProt P01116). The experiment can be described thus: KRAS (GDP) biochemical TR-FRET probe displacement assay, WT. To be noted: 2 hours at room temperature. It counts as binding. The method, then:
(§1) • Compounds were tested for binding to GDP-loaded wild-type KRAS (WT), KRAS-G12C, KRAS-G12D, and KRAS-G12V in a 384-well assay format using a TR-FRET probe displacement assay in buffer consisting of 50 mM Hepes (pH 7.4), 150 mM NaCl. 5 mM MgCl2 and 0.005% Tween-20. 0.03 nM KRAS was used in this assay with 0.02 nM Eu-streptavidin and 12 nM Cy-5 labelled probe. Compounds were serially diluted (1:3) in DMSO. The LabCyte ECHO Acoustic dispenser was used to pre-spot the assay plates (384-well Non-Binding Surface plates, Corning, Catalog #3824) with 50 nL of compound. 5 μL of 2× enzyme concentration was added to the pre-spotted plates and incubated for 30 minutes before adding 5 μL of 2× concentration of Eu-streptavidin and Cy-5 labelled probe (10 μL final reaction volume). The plates were incubated at room temperature for 2 hours before measuring TR-FRET ratio (665 nm/615 nm) on the Envision multimode plate reader. The ratios were normalized to a positive (saturating concentration of known inhibitor) and negative (DMSO) control and plotted against the log of compound concentration. […]
For orientation: In TR-FRET formats the signal depends on donor and acceptor labels being close together.

Experiment [2] deals with GDP-loaded KRAS-G12C (Homo sapiens, UniProt P01116, G12C). The experiment can be described thus: KRAS (GDP) biochemical TR-FRET probe displacement assay, G12C. The settings on record: 2 hours at room temperature. Format: binding. Here is the method:
as §1

Experiment [3] addresses GDP-loaded KRAS-G12V (Homo sapiens, UniProt P01116, G12V). Put plainly: KRAS (GDP) biochemical TR-FRET probe displacement assay, G12V. It counts as binding. To be noted: 2 hours at room temperature. Here is the method: as §1
The target of experiment [4] is GDP-loaded KRAS-G12D (Homo sapiens, UniProt P01116, G12D). Put plainly: KRAS (GDP) biochemical TR-FRET probe displacement assay, G12D. The settings on record: 2 hours at room temperature. It counts as binding. Here is the method: as §1
GDP-loaded KRAS-G12D, sequence (P01116 1-188 isoform P01116-2 G12D): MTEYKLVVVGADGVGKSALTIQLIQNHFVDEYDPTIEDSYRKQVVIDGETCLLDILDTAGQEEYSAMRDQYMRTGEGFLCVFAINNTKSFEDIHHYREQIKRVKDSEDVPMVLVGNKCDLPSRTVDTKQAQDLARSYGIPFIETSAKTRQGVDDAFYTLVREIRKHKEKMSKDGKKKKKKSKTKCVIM
Experiment [5] has as its system cellular pERK in Kuramochi (WT KRAS) cell-line. The experiment can be described thus: Cell based pERK assay, Kuramochi. The settings on record: Kuramochi (WT KRAS) cells, 2 hours compound incubation, HTRF Phospho-ERK1/2. The method, then: (§2) Compounds were tested in a 384-well assay format for their ability to inhibit cellular pERK in Kuramochi (WT KRAS), MIA-PaCa-2 (KRAS-G12C), ASPC-1 (KRAS G12D), and NCI-H441 (KRAS-G12V) cell-lines. Compounds were serially diluted (1:3) in DMSO. On day −1, 80 μL of cells were plated per well in the 384 well tissue-culture plates (Greiner: Cat #781080) to seed 5000 cells per wells of AsPC-1 or 7500 cells of MIA-PaCa-2, NCI-H441, and Kuramochi cell lines in RPMI (Corning: Cat #10-040-CM) with 10% fetal bovine serum (FBS) (HyClone: Cat #SH30071-03) and IX penicillin-streptomycin-glutamate (PSG) (Corning: Cat #30-009-C1) for […] and Kuramochi cell lines and DMEM (Corning: Cat #15-018-CM) with 10% FBS and 1×PSG for MIA-PaCa-2 cell line. The plates were then incubated overnight at 37° C. and 5% CO2. On day 0, 400 nL of compound/well was added into the cell plates and mixed 5 times by pipetting using a Beckmann Biomek FX. The cell plates were then incubated for 2 hours at 37° C. and 5% CO2. HTRF Advanced Phospho-ERK1/2 (THR202/TYR204) Detection Kits (PerkinElmer: Cat #64AERPEG) were used to prepare the lysis and detection solution according to manufacturer protocol. Following the 2 hour incubation, 70 μL of medium was aspirated from the plates and 10 μL of lysis and detection solution was added to the plates using a Biotek EL406 washer and dispenser. Plates were sealed and stored overnight at room temperature. HTRF ratio (665 nm/615 nm) was read by Envision multimode reader (PerkinElmer) the next day. The TR-FRET ratios were normalized to a positive (saturating concentration of known inhibitor) and negative (DMSO) control and plotted against the log of compound concentration.

Experiment [6] has as its system cellular pERK in MIA-PaCa-2 (KRAS-G12C) cell-line. Put plainly: Cell based pERK assay, MIA-PaCa-2. The settings on record: Homo sapiens; MIA-PaCa-2 (KRAS-G12C) cells, 2 hours compound incubation, HTRF Phospho-ERK1/2; read-out: MIAPaCa2 pERK EC50. Here is the method:
as §2

Experiment [7] relates to cellular pERK in NCI-H441 (KRAS-G12V) cell-line. Put plainly: Cell based pERK assay, NCI-H441. The settings on record: Homo sapiens; NCI-H441 (KRAS-G12V) cells, 2 hours compound incubation, HTRF Phospho-ERK1/2. The method, then: as §2
In experiment [8] the test system is cellular pERK in ASPC-1 (KRAS G12D) cell-line. The experiment can be described thus: Cell based pERK assay, ASPC-1. The settings on record: ASPC-1 (KRAS G12D) cells, 2 hours compound incubation, HTRF Phospho-ERK1/2. Here is the method:
as §2

GDP-loaded KRAS-G12C, sequence (P01116 1-188 isoform P01116-2 G12C): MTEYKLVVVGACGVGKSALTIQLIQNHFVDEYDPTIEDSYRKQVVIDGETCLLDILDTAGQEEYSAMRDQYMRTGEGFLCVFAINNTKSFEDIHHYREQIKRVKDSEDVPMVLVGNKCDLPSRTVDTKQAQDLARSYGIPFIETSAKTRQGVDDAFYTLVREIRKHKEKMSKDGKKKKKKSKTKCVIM
GDP-loaded wild-type KRAS (WT), sequence (P01116 1-188 isoform P01116-2): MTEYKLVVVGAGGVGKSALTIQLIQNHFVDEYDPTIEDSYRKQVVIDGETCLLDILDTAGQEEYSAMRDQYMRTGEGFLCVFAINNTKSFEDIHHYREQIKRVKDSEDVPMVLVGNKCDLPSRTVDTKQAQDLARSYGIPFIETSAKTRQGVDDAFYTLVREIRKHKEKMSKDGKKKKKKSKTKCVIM
GDP-loaded KRAS-G12V, sequence (P01116 1-188 isoform P01116-2 G12V): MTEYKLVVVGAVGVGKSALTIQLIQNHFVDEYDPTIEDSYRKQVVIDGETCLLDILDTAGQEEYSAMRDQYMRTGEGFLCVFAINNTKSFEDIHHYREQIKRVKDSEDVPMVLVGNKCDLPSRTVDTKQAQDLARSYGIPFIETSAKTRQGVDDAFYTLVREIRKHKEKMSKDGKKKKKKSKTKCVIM

In general, IC50 refers to the midpoint of a concentration-inhibition curve. The low end stands for greater potency in that assay, the high end for weaker potency in that assay. Usually EC50 stands for the concentration that produces a half-maximal response. Regarding `Cc1cc(-c2c(F)cc3c(N4CC5(F)CCC(F)(C4)N5)nc(OC[C@@]45CCCN4C[C@H](F)C5)nc3c2F)c2cccnc2c1N` [Example 2-7], the IC50 in experiment [1], in experiment [2], in experiment [3] and in experiment [4] was over 100 nM each time. Further, the EC50 is over 1000 nM in experiment [5] (2 h); over 1000 nM in experiment [6]; over 1000 nM in experiment [7]; over 1000 nM in experiment [8] (Homo sapiens, ASPC1, 2 h).

For the molecule `N#Cc1c(N)sc2c(F)ccc(-c3c(Cl)cc4c(N5CC6(F)CCC(F)(C5)N6)nc(OC[C@@]56CCCN5C[C@H](F)C6)nc4c3F)c12` [Example 7-3], the IC50 is 0.63 nM in experiment [1], 1.7 nM in experiment [2], 5.09 nM in experiment [3] and 12.6 nM in experiment [4]. Further, the EC50 in experiment [5] (2 h) is 5.2 nM; in experiment [6], 16.8 nM; in experiment [7], 4.82 nM; in experiment [8] (Homo sapiens, ASPC1, 2 h), 39.7 nM.

As to `C#Cc1c(F)ccc2cccc(-c3ncc4c(N5CC6(F)CCC(F)(C5)N6)nc(OC[C@@]56CCCN5C[C@H](F)C6)nc4c3F)c12` [Example 1-2], the IC50 in experiment [1] was 26.6 nM; in experiment [2], 38 nM; in experiment [3], 84 nM; in experiment [4], at least 100 nM. In addition, the EC50 in experiment [5] (2 h) was 11.9 nM; in experiment [6], 32.2 nM; in experiment [7] it was 66 nM; in experiment [8] (Homo sapiens, ASPC1, 2 h), 194 nM.

On to `C#Cc1c(F)ccc2cc(N)cc(-c3ncc4c(N5CC6(F)CCC(F)(C5)N6)nc(OC[C@@]56CCCN5C[C@H](F)C6)nc4c3F)c12` [Example 5-1, 4-(4-(1,5-difluoro-3,8-diazabicyclo[3.2.1]octan-3-yl)-8-fluoro-2-(((2R,7aS)-2-fluorotetrahydro-1H-pyrrolizin-7a(5H)-yl)methoxy)pyrido[4,3-d]pyrimidin-7-yl)-5-ethynyl-6-fluoronaphthalen-2-amine], for which the half-inhibitory concentration (IC50) in experiment [1] came out at 2.31 nM; in experiment [2], 2.78 nM; in experiment [3], 7.59 nM; in experiment [4] it was 15.1 nM. The EC50 in experiment [5] (2 h) came to 2.94 nM; in experiment [6], 4.99 nM; in experiment [7], 8.41 nM; in experiment [8] (Homo sapiens, ASPC1, 2 h) it was 25.9 nM.

As to `C#Cc1c(F)ccc2cc(O)cc(-c3c(F)cc4c(N5CC6(F)CCC(F)(C5)N6)nc(OC[C@@]56CCCN5C[C@H](F)C6)nc4c3F)c12` (single isomer, unassigned) [Example 9-1], the IC50 in experiment [1] worked out at 0.18 nM; in experiment [2] it was 0.17 nM; in experiment [3], 0.19 nM; in experiment [4] it was 0.32 nM. Also, the EC50 in experiment [5] was 4.25 nM; in experiment [8] (read-out: AsPC1 pERK EC50), 6.2 nM.

For `C#Cc1c(F)ccc2cc(N)cc(-c3c(F)cc4c(N5CC6(F)CCC(F)(C5)N6)nc(OCC56CCCN5CCC6)nc4c3F)c12` [Example 2-10], the IC50 in experiment [1] was found to be 3.67 nM; in experiment [2] it was 4.22 nM; in experiment [3] it was 4.17 nM; in experiment [4] it was 17.4 nM. The EC50 in experiment [5] (2 h) worked out at 5.34 nM; in experiment [6], 8.62 nM; in experiment [7], 49 nM; in experiment [8] (Homo sapiens, ASPC1, 2 h), 150 nM.

`C#Cc1c(F)ccc2cccc(-c3ncc4c(N5C[C@]6(F)CC[C@](F)(C5)N6)nc(OCC56CCCN5CCC6)nc4c3F)c12` [Example 3-1, 4-((1R,5S)-1,5-difluoro-3,8-diazabicyclo[3.2.1]octan-3-yl)-7-(8-ethynyl-7-fluoronaphthalen-1-yl)-8-fluoro-2-((tetrahydro-1H-pyrrolizin-7a(5H)-yl)methoxy)pyrido[4,3-d]pyrimidine]: the EC50 turned out to be 8.71 nM in experiment [5] (2 h); 38.4 nM in experiment [6]; 117 nM in experiment [7]; 368 nM in experiment [8] (Homo sapiens, ASPC1, 2 h).

Consider `Fc1ccc2nc(C(F)(F)F)c(-c3c(F)cc4c(N5CC6(F)CCC(F)(C5)N6)nc(OC[C@@]56CCCN5C[C@H](F)C6)nc4c3F)n2c1` [Example 6-3], for which the 50% inhibitory concentration (IC50) in experiment [1], in experiment [2], in experiment [3] and in experiment [4] was over 100 nM each time.

As to `N#Cc1c(N)sc2c(F)ccc(-c3c(Cl)cc4c(N5CC6(F)CCC(F)(C5)N6)nc(OC[C@@]56CCCN5C[C@H](F)C6)nc4c3F)c12` (single isomer, unassigned) [Example 8-1], the concentration for half-maximal inhibition (IC50) in experiment [1] is 0.13 nM; in experiment [2], 1.03 nM; in experiment [3], 1 nM; in experiment [4], 1.46 nM. The EC50 in experiment [5] stood at 2.57 nM; in experiment [8] (read-out: AsPC1 pERK EC50), 25.3 nM.

For the molecule `C#Cc1c(F)ccc2cc(O)cc(-c3c(F)cc4c(N5CC6(F)CCC(F)(C5)N6)nc(OC[C@@]56CCCN5C[C@H](F)C6)nc4c3F)c12` (single isomer, unassigned) [Example 9-2], the IC50 in experiment [1] was found to be 66.3 nM; in experiment [3], 72.6 nM; in experiment [4] it was 97.8 nM. For the same molecule, the EC50 in experiment [5] and in experiment [8] (read-out: AsPC1 pERK EC50) was over 1000 nM each time.

As for `CCc1c(F)ccc2cccc(-c3ncc4c(N5CC6(F)CCC(F)(C5)N6)nc(OC[C@@]56CCCN5C[C@H](F)C6)nc4c3F)c12` [Example 4-2], the EC50 turned out to be 53.3 nM in experiment [5] (2 h); 301 nM in experiment [6]; 507 nM in experiment [7]; 1030 nM in experiment [8] (Homo sapiens, ASPC1, 2 h).

Consider `CCc1c(F)ccc2cc(O)cc(-c3ncc4c(N5CC6(F)CCC(F)(C5)N6)nc(OC[C@@]56CCCN5C[C@H](F)C6)nc4c3F)c12` [Example 4-1, 4-(4-((1R,5S)-1,5-difluoro-3,8-diazabicyclo[3.2.1]octan-3-yl)-8-fluoro-2-(((2R,7aS)-2-fluorotetrahydro-1H-pyrrolizin-7a(5H)-yl)methoxy)pyridol[4,3-d]pyrimidin-7-yl)-5-ethyl-6-fluoronaphthalen-2-ol], for which the EC50 was 1.35 nM in experiment [5] (2 h); 2.22 nM in experiment [6]; 4.7 nM in experiment [7]; 11.9 nM in experiment [8] (Homo sapiens, ASPC1, 2 h).

On to `C#Cc1c(F)ccc2cc(O)cc(-c3ncc4c(N5C[C@]6(F)CC[C@](F)(C5)N6)nc(OCC56CCCN5CCC6)nc4c3F)c12` [Example 2-1, 4-(4-((1R,5S)-1,5-difluoro-3,8-diazabicyclo[3.2.1]octan-3-yl)-8-fluoro-2-((tetrahydro-1H-pyrrolizin-7a(5H)-yl)methoxy)pyrido[4,3-d]pyrimidin-7-yl)-5-ethynyl-6-fluoronaphthalen-2-ol], for which the EC50 in experiment [5] (2 h) came out at 11.5 nM; in experiment [6], 6.9 nM; in experiment [7], 17.9 nM; in experiment [8] (Homo sapiens, ASPC1, 2 h) it was 71.1 nM.

With `Cc1c(F)c(N)cc(-c2ncc3c(N4CC5(F)CCC(F)(C4)N5)nc(OC[C@@]45CCCN4C[C@H](F)C5)nc3c2F)c1C(F)(F)F` [Example 6-4], the IC50 in experiment [1] is 17.3 nM; in experiment [2], 20.1 nM; in experiment [3] it was 21.6 nM; in experiment [4] it was over 100 nM. Moreover, the EC50 in experiment [5] (2 h) came to 11.3 nM; in experiment [8] (Homo sapiens, ASPC1, 2 h), 449 nM.
